Test results taken from BindingDB's records for PubMed 36971365 (Dongguk University, 2023).

Molecular target: Signal transducer and activator of transcription 3 (Homo sapiens, UniProt P40763)
Assay: Inhibition of STAT3 (unknown origin) transfected in human HepG2 cells assessed as inhibition of IL-6 induced STAT3 phosphorylation by luciferase reporter gene assay

Chain of Signal transducer and activator of transcription 3 (P40763 whole entry): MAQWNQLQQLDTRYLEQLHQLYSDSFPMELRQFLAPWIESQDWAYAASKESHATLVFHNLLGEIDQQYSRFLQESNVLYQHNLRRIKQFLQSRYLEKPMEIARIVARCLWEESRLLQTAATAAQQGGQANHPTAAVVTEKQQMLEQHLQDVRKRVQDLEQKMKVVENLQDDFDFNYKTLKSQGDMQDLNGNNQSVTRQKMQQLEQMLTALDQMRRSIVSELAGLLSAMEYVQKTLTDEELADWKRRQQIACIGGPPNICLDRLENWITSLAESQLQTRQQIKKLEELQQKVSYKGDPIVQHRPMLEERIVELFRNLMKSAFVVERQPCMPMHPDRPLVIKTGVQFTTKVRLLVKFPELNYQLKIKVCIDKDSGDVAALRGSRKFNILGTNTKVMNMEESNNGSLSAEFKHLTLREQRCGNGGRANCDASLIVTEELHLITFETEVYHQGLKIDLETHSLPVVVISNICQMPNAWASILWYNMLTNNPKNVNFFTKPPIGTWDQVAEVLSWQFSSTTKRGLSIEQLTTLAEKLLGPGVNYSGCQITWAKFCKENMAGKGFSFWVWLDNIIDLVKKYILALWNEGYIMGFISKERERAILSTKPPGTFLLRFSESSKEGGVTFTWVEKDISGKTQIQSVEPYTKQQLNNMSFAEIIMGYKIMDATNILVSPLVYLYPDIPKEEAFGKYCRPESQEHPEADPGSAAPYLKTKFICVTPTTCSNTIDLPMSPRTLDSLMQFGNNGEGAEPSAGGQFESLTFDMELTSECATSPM

IC50: 5.9 µM
Structure (SMILES): C=C(CCCCC)[C@@H](O)[C@H](C)C(=O)N1C(=O)OC[C@@H]1C(C)C
